For data set [1], the system named is macrotumors formed by T4-2 cells. Briefly: Doxorubicin treatment of macrotumors, tumor size (surface area). The format is cell-based. As to conditions: 10 μM; 24 h, followed by six-day resting period. As to the method: (§1) FIG. 6. Effect of Doxorubicin treatment on macrotumors formed by T4-2 cells. a. Images of macrotumors treated (Dox) or untreated (Control) with 10 μM doxorubicin at day 0, for 24 hours and further cultured for six days. n=two replicates for this experiment (1, 2). b. Shown are the surface areas of macrotumors from A measured at days 0, 1, 2, 4, 5, and 7. c. Another experiment with 24 h Doxorubicin (Dox) treatment at day 0, 7 and 14 with images taken at day 0 and 21. Size bars, 5 mm
Images of whole tumors in culture and of paper scaffold were taken with a Plugable USB 2.0 Digital Microscope (Plugable Technologies, Redmond, WA). Tumor size (short and long axis) was measured with ImageJ. For pathological assessment slides were either directly visualized by microscopy or scanned (20× objective) with an Aperio/Pathology Slide Scanner (Leica Biosystems Inc., Buffalo Grove, IL).

Data set [2] shares this test system. The data set is described as follows: Weekly doxorubicin treatment of macrotumors, pathological assessment of nuclear morphology. In kind it is cell-based. As to conditions: 10 μM; 24 h weekly for three weeks; assessed at days 7 and 21. As for the experimental part:
as §1
Macrotumors were fixed in 4% paraformaldehyde (Santa Cruz; Dallas, TX) prior to embedding in paraffin at the Histology Research Laboratory, Department of Comparative Pathobiology, Purdue University, according to standard protocols used for tumor sample embedding, sectioning, immunohistochemistry with polyclonal antibodies against caspase 3 (1/200; Cell Signaling Tech, Danvers, MA) and Ki67 (1/500; Millipore-Sigma, St Louis, MO) and hematoxylin & eosin (H&E) staining. Certain sections were stained with toluidine blue (SigmaAldrich, St. Louis, MO) before H&E staining.

For data set [3] the test system is unchanged. The data set is described as follows: Doxorubicin uptake in macrotumors (autofluorescence, confocal Z-sections). As to conditions: 4-h treatment, 10 μg/ml [17.25 μM], macrotumors cultured 24 h. In kind it is cell-based. As to the method:
FIG. 1. Differential centrifugation of small tumor nodules leads to the formation of simple and mixed types of macrotumors with in vivo like pathological features. The formation of tumors of up to 600 μm in size was induced by culturing either IDC T4-2 cells or S2 DCIS cells in Matrigel™ drip culture for 10 days. Upon release from Matrigel™ with dispase treatment, tumor nodules were incubated with 100 μg/ml fibronectin solution, spun down either as a single type of nodules (9,000 nodules; a-e) or as mixed types of nodules (4,500 nodules of each tumor type; f-g) and embedded in collagen I (2,000 Pa) as detailed in the methods section. a. […] Macrotumors cultured for 24 h were incubated with 17.25 μM doxorubicin for four hours and imaged with bright field and fluorescence microscopy (doxorubicin autofluorescence in the red channel). […] Fluorescence images of macrotumors formed by DiI-stained T4-2 nodules, CellMask™ Green-stained S2 nodules and mixed types of macrotumors with T4-2 and S2 nodules (either mixed before centrifugation ‘T4-2/S2 by mixing’ or sequentially centrifuged ‘T4-2/S2 by stacking’) taken with a Nikon®ECLIPSE® Ts2 inverted microscope (Nikon, Melville, NY). g. […] In D, 50 nuclei analyzed in two biological replicates for macrotumors and 100 nuclei analyzed per section of three tissue samples; *P<0.05 **P<0.01; ANOVA with Tukey's posthoc test. […]

Data set [4] can be described thus: Stiffness measurement of collagen I with fibronectin (compression test). As to conditions: fibronectin with collagen I vs collagen I only. The format is physicochemical. As to the method:
FIG. 3. Impact of fibronectin on macrotumors. Small tumors (9000) preformed in Matrigel™ for 10 days were used to make macrotumors as described in the Methods section with or without incubation with 100 μg/ml fibronectin. a. Macrotumors prepared without fibronectin incubation and cultured for 24 hours (right images at 40× magnification). b. Comparison of volumes and areas of macrotumors with (+) or without (−) incubation with fibronectin after 30 minutes (0.5 h) and 24 h of culture; n=5, mean+/−SEM. c. Stiffness of collagen I (Young's modulus, Pa) prepared with Collagen I, and measured with customized eXpert 4000, ADMET by constant pressure on unconstrained sample (see reference 15 for details for this procedure). d. Staining with H&E of macrotumors prepared without incubation with fibronectin. e. representative images of macrotumors and nodules (mixed in collagen I for 10 minutes without prior centrifugation). Shown is the bar graph of the percentage of cells positive for proliferation marker Ki67 staining after 24 h of culture of macrotumors in collagen I or collagen I+fibronectin (F), or nodules (mixed in collagen I for 10 minutes without prior centrifugation); n=2; 150 nuclei analyzed per biological replicate. […]
The elastic modulus of cultured samples can be calculated from engineered stress-strains curve attained with compression tests. […]

Data on two compounds can be found in patent US12006509B2, “Macrotumor engineering” (Purdue Research Foundation, priority 2019, dated 2024).

“Also recorded” adds a separate entry of the source.

Turning to `COc1cccc2c1C(=O)c1c(O)c3c(c(O)c1C2=O)C[C@@](O)(C(=O)CO)C[C@@H]3O[C@H]1C[C@H](N)[C@H](O)[C@H](C)O1` [doxorubicin], in data set [1], the tumor size entry is “appeared to decrease tumor size after day 4”. The “nuclear morphology (pathological assessment)” value in data set [2] was “increasingly affected”. Besides, in data set [3], the “drug uptake / penetration in the macrotumor” value is “penetration of doxorubicin in all areas of the macrotumor; also recorded: drug uptake occurred throughout the macrotumors”.

As for Fibronectin, in data set [4], the ECM stiffness entry is “slightly raised”.
